From patent US9340530B2, “Preparation and use of bicyclic himbacine derivatives as PAR-1 receptor antagonists” (Merck, Sharp & Dohme Corp., priority 2012, dated 2016)

How the values were obtained:
[1] = target: thrombin receptor (PAR-1 receptor) (Homo sapiens (Human), UniProt P25116); experiment: High throughput thrombin receptor radioligand binding assay ([3H]haTRAP, platelet membranes); details: [3H]haTRAP binding to platelet membranes
Method: The following binding assays were used to determine the ability of the inventive compounds to inhibit the PAR-1 receptor.
A(pF-F)R(ChA)(hR)(I2—Y)—NH2 (1.03 mg) and 10% Pd/C (5.07 mg) were suspended in DMF (250 μl) and diisopropylethylamine (10 μL). The vessel was attached to the tritium line, frozen in liquid nitrogen and evacuated. Tritium gas (342 mCi) was then added to the flask, which was stirred at room temperature for 2 hours. At the completion of the reaction, the excess tritium was removed and the reacted peptide solution was diluted with DMF (0.5 ml) and filtered to remove the catalyst. The collected DMF solution of the crude peptide was diluted with water and freeze dried to remove the labile tritium. The solid peptide was redissolved in water and the freeze drying process repeated. The tritiated peptide ([^3H]haTRAP) was dissolved in 0.5 ml of 0.1% aqueous TFA and purified by HPLC using the following conditions: column, Vydac™ C18, 25 cm×9.4 mm I.D.; mobile phase, (A) 0.1% TFA in water, (B) 0.1% TFA in CH3CN; gradient, (A/B) from 100/0 to 40/60 over 30 min; flow rate, 5 ml/min; detection, UV at 215 nm. The radiochemical purity of [^3H]haTRAP was 99% as analyzed by HPLC. A batch of 14.9 mCi at a specific activity of 18.4 Ci/mmol was obtained.
Platelet membranes were prepared using a modification of the method of Natarajan et al. (Natarajan et al, Int. J. Peptide Protein Res. 45:145-151 (1995)) from 20 units of platelet concentrates obtained from the North Jersey Blood Center (East Orange, N.J.) within 48 hours of collection. All steps were carried out at 4° C. under approved biohazard safety conditions. Platelets were centrifuged at 100×g for 20 minutes at 4° C. to remove red cells. The supernatants were decanted and centrifuged at 3000×g for 15 minutes to pellet platelets. Platelets were re-suspended in 10 mM Tris-HCl, pH 7.5, 150 mM NaCl, 5 mM EDTA, to a total volume of 200 ml and centrifuged at 4400×G for 10 minutes. This step was repeated two additional times. […] Protein concentration was determined by a Lowry assay (Lowry et al., J. Biol. Chem., 193:265-275 (1951)). […]

PAR1 = PAR1 (Homo sapiens (Human), UniProt P25116); experiment: Par-1 FLIPR assay (calcium, HEK 293 cells, PAR1 activating peptide); type: cell-based; details: PAR1 selective receptor-activating peptide at 80% activation
PAR1, sequence (P25116 22-425): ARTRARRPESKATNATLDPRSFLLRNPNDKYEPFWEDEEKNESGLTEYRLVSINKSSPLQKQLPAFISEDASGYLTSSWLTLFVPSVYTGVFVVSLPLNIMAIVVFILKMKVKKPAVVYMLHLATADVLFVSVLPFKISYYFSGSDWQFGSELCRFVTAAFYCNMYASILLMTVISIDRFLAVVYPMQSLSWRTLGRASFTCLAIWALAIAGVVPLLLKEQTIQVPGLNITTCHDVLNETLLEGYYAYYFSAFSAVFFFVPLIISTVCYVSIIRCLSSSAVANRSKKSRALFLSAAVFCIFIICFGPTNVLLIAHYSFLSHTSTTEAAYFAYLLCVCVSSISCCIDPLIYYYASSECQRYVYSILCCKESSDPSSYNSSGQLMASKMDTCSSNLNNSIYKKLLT
Method: HEK 293 Cells were grown in media containing DMEM, 10% FBS pen/strep/L-Glutamine and non-essential amino acids. The cells were plated in 384-well PDL coated plates at 12000 cells/well and incubated overnight at 37° C./5% CO2. Media was then removed from the cells, which were then incubated with buffer (Hank's containing HEPES and Chaps) containing FLIPR calcium-5 dye, made with buffer containing probenecid, for 60 minutes at 37° C. Varying concentrations of compound in a final concentration of 5% DMSO were then added to the cells and incubated at 25° C. for 30 minutes. […] The FLIPR reads at an excitation wavelength of 480 nm and an emission wavelength of 535 nm, and performs 60 scans over a 1-2 min reading time. The data were analyzed by taking the peak signal over a portion of the range of the 60 scans and dividing this signal by the minimum signal for that same range.

thrombin receptor (PAR-1 receptor), sequence (P25116 22-425): as above

| Ki [1] [nM] | IC50 (PAR1) [nM] | Structure (SMILES) |
| --- | --- | --- |
| 3 | 8.1 | C[C@H]1OC(=O)[C@]2(O)CC(F)(F)[C@@H](C)[C@H](/C=C/c3ccc(-c4cccc(F)c4)cn3)[C@H]12 [Example 10] |
| 3 | 17 | C[C@H]1OC(=O)[C@]2(C(=O)NCCO)CC(F)(F)[C@@H](C)[C@H](/C=C/c3ccc(-c4cccc(F)c4)cn3)[C@H]12 [Example 13] |

| Structure (SMILES) | Ki [1] [nM] | IC50 (PAR1) [nM] |
| --- | --- | --- |
| C[C@H]1OC(=O)C2CC(F)(F)[C@@H](C)[C@H](/C=C/c3ccc(-c4cccc(F)c4)cn3)C21 (stereo partly drawn) [Example 2] | 3 | 5.01 |
